Assay results from patent US5593982A, “Cyclopentanperhydrophenanthren-17β-(3-furyl)-3-derivatives and pharmaceutical compositions comprising same for the treatment of cardiovascular disorders” (Sigma-Tau Industrie Farmaceutiche Riunite S.p.A., priority 1992, dated 1997).
Where a name gives a salt, the structure may show the parent alone. Read-outs that look alike come from different tables or passages of the source.

What was measured:
[1] = molecular target: T1, Na^+,K^+ -ATPase receptor (Canis lupus familiaris, UniProt P50997); assay: displacement of the specific 3H-ouabain binding from the purified Na+,K+-ATPase receptor
T1 construct: from tissue; mammalian kidney outer medulla by the cited Jorgensen 1974 method (own knowledge)
Description: (§1) To test the affinity for the receptor site of the Na^+,K^+ -ATPase and the agonist or antagonist activity on the enzyme, the following tests were used: a) displacement of the specific ^3 H-ouabain binding from the Na^+,K^+ -ATPase receptor purified according to Jorghensen (Jorghensen P., BBA, 1974, 356, 36) and Erdmann (Erdmann E. et al., Arzneim. Forsh., 1984, 34, 1314); b) inhibition of the activity of the purified Na^+,K^+ -ATPase measured as % of hydrolysis of ^32 P-ATP in presence and in absence of the tested compound (Mall F. et al., Biochem. Pharmacol., 1984, 33, 47).

[2] = molecular target: T2, purified Na^+,K^+ -ATPase (Canis lupus familiaris, UniProt P50997); assay: inhibition of the activity of the purified Na+,K+-ATPase measured as % of hydrolysis of 32P-ATP; assay type: biochemical
T2 construct: from tissue; mammalian kidney outer medulla by the cited Jorgensen 1974 method (own knowledge)
Description: as §1

[3] = hydrolysis of 32P-ATP, purified Na+,K+-ATPase, read-out: Inhibitory Activity log IC50 (converted)
[4] = displacement of specific 3H-ouabain binding, purified Na+,K+-ATPase, read-out: Binding 3H-Ouab. Displacement log IC50 (converted)

Compound | IC50 [1] | IC50 [2] | IC50 [2, 3] | IC50 [1, 4]
C[C@]12CC[C@H](OCCN)C[C@H]1CC[C@@H]1[C@@H]2CC[C@]2(C)[C@@H](c3ccoc3)CC[C@]12O [Comp. I-aa, 3β-(2-Aminoethoxy)-17β-(3-furyl)-5β-androstan-14β-ol] | 0.158 µM | 0.501 µM | – | –
C[C@]12CC[C@H](OCCCCN)C[C@H]1CC[C@@H]1[C@@H]2CC[C@]2(C)[C@@H](c3ccoc3)CC[C@]12O [Comp. I-ac, 3β-(4-Aminobutoxy)-17β-(3-furyl)-5β-androstan-14β-ol] | 0.398 µM | 2 µM | – | –
C[C@]12CC[C@H](OCCN3CCCC3)C[C@H]1CC[C@@H]1[C@@H]2CC[C@]2(C)[C@@H](c3ccoc3)CC[C@]12O [Comp. I-ad, 3β-(2-(1-Pyrrolydinyl)ethoxy)-17β-(3-furyl)-5β-androstan-14β-ol] | 0.158 µM | 1 µM | – | –
C[C@]12CC[C@H](OCCCN3CCNCC3)C[C@H]1CC[C@@H]1[C@@H]2CC[C@]2(C)[C@@H](c3ccoc3)CC[C@]12O [Comp. I-af, 3β-(3-(1-Piperazinyl)propoxy)-17β-(3-furyl)-5.β-androstan-14β-ol] | 0.1 µM | – | 1.26 µM | –
C[C@]12CC[C@H](OCCOCCN3CCCC3)C[C@H]1CC[C@@H]1[C@@H]2CC[C@]2(C)[C@@H](c3ccoc3)CC[C@]12O [Comp. I-ah, 3β-(2-(2-(1-Pyrrolidinyl)ethoxy)ethoxy)-17β-(3-furyl)-5β-androstan-14β-ol] | 0.158 µM | 0.794 µM | – | –
CN(C)CCCOCCO[C@H]1CC[C@@]2(C)[C@H](CC[C@@H]3[C@@H]2CC[C@]2(C)[C@@H](c4ccoc4)CC[C@]32O)C1 [Comp. I-aj, 3β-(2-(3-Dimethylaminopropoxy)-ethoxy)-17β-(3-furyl)-5β-androstan-14β-ol] | 0.158 µM | – | 1.26 µM | –
C[C@]12CC[C@H](OCC[N+]3(C)CCCC3)C[C@H]1CC[C@@H]1[C@@H]2CC[C@]2(C)[C@@H](c3ccoc3)CC[C@]12O [Comp. I-ak, 3β-(2-(N-methyl-1-pyrrolydinium)ethoxy)-17β-(3-furyl)-5β-androstan-14β-ol iodide] | 0.158 µM | – | 1.26 µM | –
C[C@]12CC[C@H](OCCCNC(=N)N)C[C@H]1CC[C@@H]1[C@@H]2CC[C@]2(C)[C@@H](c3ccoc3)CC[C@]12O [Comp. I-am, 3β-(3-Guanidinopropxy)-17β-(3-furyl)-5β-androstan-14β-ol nitrate] | 0.2 µM | 3.16 µM | – | –
CNCCO[C@H]1CC[C@@]2(C)[C@H](CC[C@@H]3[C@@H]2CC[C@]2(C)[C@@H](c4ccoc4)CC[C@]32O)C1 [Comp. I-an, 3β-(2-Methylaminoethoxy)-17β-(3-furyl)-5β-androstan-14β-ol] | 0.2 µM | 1.58 µM | – | –
C[C@]12CC[C@H](OCC(N)CN)C[C@H]1CC[C@@H]1[C@@H]2CC[C@]2(C)[C@@H](c3ccoc3)CC[C@]12O (stereo partly drawn) [Comp. I-ao, 3β-(2,3-Diaminopropoxy)-17β-(3-furyl)-5β-androstan-14β-ol] | 0.316 µM | 1.58 µM | – | –
C[C@]12CC[C@H](OCC(CN3CCCC3)N3CCCC3)C[C@H]1CC[C@@H]1[C@@H]2CC[C@]2(C)[C@@H](c3ccoc3)CC[C@]12O (stereo partly drawn) [Comp. I-ap, 3β-(2,3-Bis(1-pyrrolidinyl)propoxy)-17β-(3-furyl)-5β-androstan-14β-ol] | 0.398 µM | 1.58 µM | – | –
CO[C@]12CC[C@H](c3ccoc3)[C@@]1(C)CC[C@H]1[C@H]2CC[C@@H]2C[C@@H](OCCCN)CC[C@@]21C [Comp. I-ar] | – | – | 25.1 µM | 3.16 µM
CO[C@]12CC[C@H](c3ccoc3)[C@@]1(C)CC[C@H]1[C@H]2CC[C@@H]2C[C@@H](OCCN3CCCC3)CC[C@@]21C [Comp. I-as, 3β-(2-(1-Pyrrolydinyl)ethoxy)-14β-methoxy-17β-(3-furyl)-5β-androstane oxalate] | – | – | 25.1 µM | 5.01 µM
C[C@]12CC[C@H](OCCCN)C=C1CC[C@@H]1[C@@H]2CC[C@]2(C)[C@@H](c3ccoc3)CC[C@]12O [Comp. I-at, 3β-(3-Aminopropoxy)-17β-(3-furyl)-androst-4-en-14β-ol] | – | 2.51 µM | – | 0.631 µM
C[C@]12CC[C@H](OCCN3CCCC3)C=C1CC[C@@H]1[C@@H]2CC[C@]2(C)[C@@H](c3ccoc3)CC[C@]12O [Comp. I-au, 3β-(2-(1-Pyrrolidinyl)ethoxy)-17β-(3-furyl)-androst-4-en-14β-ol oxalate] | 0.316 µM | 1.58 µM | – | –
C[C@]12CC[C@H](OCCCN)CC1=CC[C@@H]1[C@@H]2CC[C@]2(C)[C@@H](c3ccoc3)CC[C@]12O [Comp. I-av, 3β-(3-Aminopropoxy)-17β-(3-furyl)-androst-5-en-14β-ol] | – | 2.51 µM | – | 0.631 µM
C[C@]12CC[C@H](OCCN3CCCC3)CC1=CC[C@@H]1[C@@H]2CC[C@]2(C)[C@@H](c3ccoc3)CC[C@]12O [Comp. I-aw, 3β-(2-(1-Pyrrolidinyl)ethoxy)-17β-(3-furyl)-androst-5-en--14β-ol] | 1.58 µM | – | 6.31 µM | –
C[C@]12CC[C@H](OCCN3CCCC3)C[C@@H]1CC[C@@H]1[C@@H]2CC[C@]2(C)[C@@H](c3ccoc3)CC[C@]12O [Comp. I-ay, 3β-(2-(1-Pyrrolidinyl)ethoxy)-17β-(3-furyl)-5α-androstan-14β-ol] | 0.398 µM | 3.16 µM | – | –
C[C@]12CC[C@H](OCCN3CCCC3)C[C@H]1CC[C@@H]1[C@@H]2CC[C@]2(C)[C@@H](c3ccoc3)C[C@H]3O[C@]132 [Comp. I-ba, 3β-(2-(1-Pyrrolidinyl)ethoxy)-14β,15β-epoxy-17β-(3-furyl)-5β-androstane oxalate] | 0.631 µM | 1.58 µM | – | –
C[C@]12CC[C@H](OCCN3CCCC3)C=C1CC[C@@H]1[C@@H]2CC[C@]2(C)[C@@H](c3ccoc3)C[C@H]3O[C@]132 [Comp. I-bc, 3β-(2-(1-Pyrrolidinyl)ethoxy)-14β,15β-epoxy-17β-(3-furyl)-androst-4-ene] | 0.316 µM | 2 µM | – | –
C[C@]12CC[C@H](SCCN3CCOCC3)C[C@H]1CC[C@@H]1[C@@H]2CC[C@]2(C)[C@@H](c3ccoc3)CC[C@]12O [Comp. I-bu, 3β-(2-(4-Morpholinoethylthio)-17β-(3-furyl)-5β-androstan-14β-ol oxalate] | 0.316 µM | 0.631 µM | – | –
C[C@]12CC[C@H](SCCCN3CCNCC3)C[C@H]1CC[C@@H]1[C@@H]2CC[C@]2(C)[C@@H](c3ccoc3)CC[C@]12O [Comp. I-bx, 3β-(3-(1-Piperazinyl)propylthio)-17β-(3-furyl)-5β-androstan-14β-ol dioxalate] | 0.501 µM | 1 µM | – | –
C[C@]12CC[C@H](SCCN3CCCC3)C=C1CC[C@@H]1[C@@H]2CC[C@]2(C)[C@@H](c3ccoc3)CC[C@]12O [Comp. I-ce, 3β-(2-(1-Pyrrolidinyl)ethylthio)-17β-(3-furyl)-androst-4-en-14β-ol oxalate] | 1 µM | 3.16 µM | – | –
C[C@]12CC[C@H](SCCCN)C[C@H]1CC[C@@H]1[C@@H]2CC[C@]2(C)[C@@H](c3ccoc3)C[C@H]3O[C@]132 [Comp. I-cj, 3β-(3-Aminopropylthio)-14β,15β-epoxy-17β-(3-furyl)-5β-androstane oxalate] | 2 µM | 6.31 µM | – | –
C[C@]12CC[C@H](OCCOCCCN)C[C@H]1CC[C@@H]1[C@@H]2CC[C@]2(C)[C@@H](c3ccoc3)CC[C@]12O [Comp. I-cx, 3β-(2-(3-Aminopropoxy)ethoxy)-17β-(3-furyl)-5β-androstan, 14β-ol] | 0.2 µM | 1.58 µM | – | –
C[C@]12CC[C@H](OCCOCC(O)CN)C[C@H]1CC[C@@H]1[C@@H]2CC[C@]2(C)[C@@H](c3ccoc3)CC[C@]12O (stereo partly drawn) [Comp. I-cy, 3β-(2-(3-Amino-2-hydroxypropoxy)ethoxy)-17β-(3-furyl)-5β-androstan-14β-ol] | 0.398 µM | 1.58 µM | – | –
C[C@]12CC[C@H](OCCOCC(N)CN)C[C@H]1CC[C@@H]1[C@@H]2CC[C@]2(C)[C@@H](c3ccoc3)CC[C@]12O (stereo partly drawn) [Comp. I-cz, 3β-(2-(2,3-Diaminopropoxy)ethoxy)-17β-(3-furyl)-5β-androstan-14β-ol] | 0.398 µM | 2 µM | – | –
C[C@]12CC[C@H](OCCOCCCN3CCCC3)C[C@H]1CC[C@@H]1[C@@H]2CC[C@]2(C)[C@@H](c3ccoc3)CC[C@]12O [Comp. I-da, 3β-(2-(3-(1-Pyrrolidinyl)propoxy)ethoxy)-17β-(3-furyl)-5β-androstan-14β-ol] | 0.316 µM | 1.58 µM | – | –
C[C@]12CC[C@H](OCCNCCCN3CCCC3)C[C@H]1CC[C@@H]1[C@@H]2CC[C@]2(C)[C@@H](c3ccoc3)CC[C@]12O [Comp. I-db, 3β-(2-(3-(1-Pyrrolidinyl)propylamino)ethoxy)-17β-(3-furyl)-5β-androstan-14β-ol] | 0.2 µM | 1.58 µM | – | –
